Experiments:
[1] = tested on: cells
[2] = tested on: recombinant MV-Edm; experiment: virus yield reduction assay, MV-Edm; assay type: cell-based, measles virus; conditions: 36 hours post-infection
[3] = tested on: Vero cells; experiment: Trypan blue exclusion assay; conditions: 30 hours
[4] = tested on: MV; experiment: virus entry assay (pH 3.0 wash); assay type: cell-based, measles virus; conditions: 10 μM, compared to DMSO-treated cells
Experimental: For entry experiments, viral particles (MOI=0.5) were absorbed to 4×10^5 target cells in a 6-well plate format at 4° C. in the presence of 10 μM compound 16677 or equal amounts of DMSO for one hour. Cells were then shifted to 37° C. for 30 minutes, followed by inactivation of adsorbed, extracellular virions by a 2-minute acid treatment (40 mM sodium citrate, 10 mM KCl, 135 mM NaCl, pH 3.0) at 25° C. as previously described (37,39,49). Subsequent incubation for 30 hours at 37° C. in the presence or absence of 10 μM compound 16677 as specified was followed by determination of cell-associated virus titers by TCID50 titration.

[5] = tested on: MV; experiment: dissociation assay (dialysis); assay type: cell-based, measles virus; conditions: 15 μM, dialysis against PBS
Experimental: Viral particles (4×10^4 pfu, equaling an MOI=[…]) were mixed with compound 16677 (final concentration 15 μM) dissolved in phosphate buffered saline (PBS). After 10-minute incubation at 37° C. to allow compound binding, samples were either subjected to dialysis against PBS (molecular weight cut off=75 kDa, dilution factor 100,000×, 4° C., 10 hours) or incubated for 10 hours at 4° C. without dialysis. Control samples were treated with DMSO-only and subjected to dialysis. All samples were then transferred to 4×10^5 target cells seeded in a 6-well plate, cell-associated viral particles harvested 36 hours post-infection and viral titers determined by TCID50 titration.

[6] = tested on: MV-Anc; experiment: compound stability under physiological conditions; assay type: physicochemical, measles virus; conditions: 15 μM, 37° C., pre-incubation for 24 hours
Experimental: To assess compound stability under physiological conditions, inhibitor compound 16677 was dissolved in growth medium (15 μM final concentration) and incubated at 37° C. and physiological pH for different time intervals (24 hours longest). Control samples contained equal amounts of DMSO and were likewise incubated for 24 hours. Subsequent to pre-incubation, MV was added to the compound aliquots and the mixtures transferred to 4×10^5 target cells seeded in a 6-well plate format (resulting MOI=0.1 pfu/cell). Thirty-six hours post-infection, cell-associated viral particles were harvested and virus titers determined by TCID50 titration.

[7] = biological target: MV polymerase complex (Measles virus, UniProt P12576); assay type: cell-based
[8] = biological target: T7 polymerase (Escherichia phage T7, UniProt P00573); experiment: in vitro protein transcription/translation; assay type: biochemical; conditions: 50 μM compound vs untreated
Experimental: Rabbit reticulocyte lysates were mixed with 0.5 μg plasmid DNA encoding MV F under the control of the T7 promoter (pT7-MV F), 20 μCi [^35S]-methionine, and compound 16677 (final concentration 50 μM) or equal volumes of DMSO. Samples were incubated at 30° C. for 90 min, mixed with urea buffer (200 mM Tris, pH 6.8; 8 M urea; 5% SDS; 0.1 mM EDTA; 0.03% bromphenolblue; 1.5% dithiothreitol), and fractionated on 12% polyacrylamide gels. Dried gels were exposed to Kodak XAR films.

[9] = tested on: panel of primary MV isolates; experiment: virus yield dose-response, primary MV isolates; assay type: cell-based, measles virus
Experimental: For assessment of clinical MV isolates, compound was added in 3-fold dilutions (37.5 μM highest). Thirty-six hours post-infection, cell-associated viral particles were harvested and titered as described above.

[10] = tested on: MV-Anc; experiment: compound specificity assay (BSA, higher virus inoculum); assay type: cell-based, measles virus
Experimental: Bovine serum albumin (BSA) was added to some samples at a final concentration of 10 mg/ml.

[11] = tested on: human parainfluenzavirus type 2 (hPIV2); assay type: cell-based; conditions: read-out: IC50 against hPIV2
[12] = tested on: MV; experiment: time of compound addition assay; assay type: cell-based, measles virus; conditions: 15 μM added 12 hours post-infection, harvest 20 hours post-infection
Experimental: Cells (3×10^5/well in a 12-well plate format) were infected with MV at an MOI=[…] and compounds compound 16677 (final concentration 15 μM) or AS-48 (final concentration 75 μM) added at the indicated time points. Control cells were infected in the presence of equal amounts of DMSO. Twenty hours post-infection, when virus-induced cytopathicity exceeded 90%, cell-associated viral particles were harvested and subjected to TCID50 titration.

[13] = tested on: canine distemper virus (CDV); assay type: cell-based; conditions: read-out: IC50 against CDV
[14] = biological target: Nipah virus polymerase (Nipah virus, UniProt Q997F0); assay type: cell-based

Sequence of MV polymerase complex (P03422 whole entry): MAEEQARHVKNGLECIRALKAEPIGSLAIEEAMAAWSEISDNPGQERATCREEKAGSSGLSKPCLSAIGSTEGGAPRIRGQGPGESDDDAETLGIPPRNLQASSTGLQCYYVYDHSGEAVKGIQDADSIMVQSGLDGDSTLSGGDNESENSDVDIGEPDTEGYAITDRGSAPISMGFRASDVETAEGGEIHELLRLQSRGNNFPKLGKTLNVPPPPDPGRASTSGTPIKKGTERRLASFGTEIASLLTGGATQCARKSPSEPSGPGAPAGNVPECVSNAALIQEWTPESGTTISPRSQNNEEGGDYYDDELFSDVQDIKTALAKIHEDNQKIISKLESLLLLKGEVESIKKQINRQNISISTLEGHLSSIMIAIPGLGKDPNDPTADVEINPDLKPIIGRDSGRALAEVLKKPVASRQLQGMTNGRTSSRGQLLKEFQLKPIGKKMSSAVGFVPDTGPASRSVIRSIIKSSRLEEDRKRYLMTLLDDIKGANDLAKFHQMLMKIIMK
Sequence of MV polymerase complex (P12576 whole entry): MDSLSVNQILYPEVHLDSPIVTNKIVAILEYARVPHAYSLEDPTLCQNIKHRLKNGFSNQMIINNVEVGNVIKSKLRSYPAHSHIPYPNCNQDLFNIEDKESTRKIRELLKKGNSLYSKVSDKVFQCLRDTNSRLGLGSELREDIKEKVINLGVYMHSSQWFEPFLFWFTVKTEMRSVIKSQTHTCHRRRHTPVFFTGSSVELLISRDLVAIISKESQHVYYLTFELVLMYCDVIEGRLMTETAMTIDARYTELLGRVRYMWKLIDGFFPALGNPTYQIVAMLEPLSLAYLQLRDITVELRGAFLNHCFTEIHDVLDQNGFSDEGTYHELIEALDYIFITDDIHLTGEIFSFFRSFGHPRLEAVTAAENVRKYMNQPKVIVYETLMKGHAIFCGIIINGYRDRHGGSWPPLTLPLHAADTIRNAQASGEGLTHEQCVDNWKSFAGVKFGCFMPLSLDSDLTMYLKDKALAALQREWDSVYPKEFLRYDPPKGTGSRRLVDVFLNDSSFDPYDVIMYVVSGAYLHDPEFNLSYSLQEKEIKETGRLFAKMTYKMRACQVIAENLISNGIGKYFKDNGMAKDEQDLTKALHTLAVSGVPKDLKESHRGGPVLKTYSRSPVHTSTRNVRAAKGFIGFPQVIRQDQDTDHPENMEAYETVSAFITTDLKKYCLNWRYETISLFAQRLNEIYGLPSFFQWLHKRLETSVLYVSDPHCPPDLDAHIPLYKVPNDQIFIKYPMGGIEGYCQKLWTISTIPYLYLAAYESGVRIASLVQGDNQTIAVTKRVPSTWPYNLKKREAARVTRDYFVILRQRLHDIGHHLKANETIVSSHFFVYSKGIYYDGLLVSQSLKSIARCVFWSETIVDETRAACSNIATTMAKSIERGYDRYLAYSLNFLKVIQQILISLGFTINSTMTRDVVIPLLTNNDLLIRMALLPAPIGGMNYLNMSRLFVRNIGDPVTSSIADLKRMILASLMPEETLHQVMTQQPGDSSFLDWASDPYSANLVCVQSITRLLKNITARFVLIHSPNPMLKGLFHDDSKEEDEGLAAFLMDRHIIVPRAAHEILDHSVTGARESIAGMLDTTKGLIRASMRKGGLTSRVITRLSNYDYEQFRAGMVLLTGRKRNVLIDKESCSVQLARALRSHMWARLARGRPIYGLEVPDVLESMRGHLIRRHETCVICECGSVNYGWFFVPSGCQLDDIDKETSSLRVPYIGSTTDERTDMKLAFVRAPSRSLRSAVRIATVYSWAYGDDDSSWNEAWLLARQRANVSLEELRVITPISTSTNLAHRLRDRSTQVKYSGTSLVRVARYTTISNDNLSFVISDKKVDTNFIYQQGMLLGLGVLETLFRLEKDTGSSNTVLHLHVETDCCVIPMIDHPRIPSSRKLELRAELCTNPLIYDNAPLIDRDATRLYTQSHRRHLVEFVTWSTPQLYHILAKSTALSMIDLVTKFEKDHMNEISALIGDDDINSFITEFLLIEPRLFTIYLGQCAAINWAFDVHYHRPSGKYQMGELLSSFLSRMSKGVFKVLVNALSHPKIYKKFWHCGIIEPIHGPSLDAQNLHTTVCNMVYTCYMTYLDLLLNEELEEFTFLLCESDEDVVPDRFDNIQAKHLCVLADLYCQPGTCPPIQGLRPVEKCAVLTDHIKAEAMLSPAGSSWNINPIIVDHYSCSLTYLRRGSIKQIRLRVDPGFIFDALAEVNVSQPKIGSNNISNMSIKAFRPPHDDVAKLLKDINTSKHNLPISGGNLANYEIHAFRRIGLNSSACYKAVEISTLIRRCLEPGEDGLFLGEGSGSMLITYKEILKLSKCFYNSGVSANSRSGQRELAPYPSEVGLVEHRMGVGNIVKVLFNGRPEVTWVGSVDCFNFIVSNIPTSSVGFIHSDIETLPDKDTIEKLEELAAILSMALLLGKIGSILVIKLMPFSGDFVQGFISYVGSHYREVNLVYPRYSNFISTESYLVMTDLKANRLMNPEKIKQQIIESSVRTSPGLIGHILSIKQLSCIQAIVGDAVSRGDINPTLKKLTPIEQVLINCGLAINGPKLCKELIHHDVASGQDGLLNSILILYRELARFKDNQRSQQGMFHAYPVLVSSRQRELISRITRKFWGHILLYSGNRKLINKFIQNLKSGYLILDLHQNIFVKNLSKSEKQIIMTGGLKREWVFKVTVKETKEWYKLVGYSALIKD
Sequence of T7 polymerase (P00573 whole entry): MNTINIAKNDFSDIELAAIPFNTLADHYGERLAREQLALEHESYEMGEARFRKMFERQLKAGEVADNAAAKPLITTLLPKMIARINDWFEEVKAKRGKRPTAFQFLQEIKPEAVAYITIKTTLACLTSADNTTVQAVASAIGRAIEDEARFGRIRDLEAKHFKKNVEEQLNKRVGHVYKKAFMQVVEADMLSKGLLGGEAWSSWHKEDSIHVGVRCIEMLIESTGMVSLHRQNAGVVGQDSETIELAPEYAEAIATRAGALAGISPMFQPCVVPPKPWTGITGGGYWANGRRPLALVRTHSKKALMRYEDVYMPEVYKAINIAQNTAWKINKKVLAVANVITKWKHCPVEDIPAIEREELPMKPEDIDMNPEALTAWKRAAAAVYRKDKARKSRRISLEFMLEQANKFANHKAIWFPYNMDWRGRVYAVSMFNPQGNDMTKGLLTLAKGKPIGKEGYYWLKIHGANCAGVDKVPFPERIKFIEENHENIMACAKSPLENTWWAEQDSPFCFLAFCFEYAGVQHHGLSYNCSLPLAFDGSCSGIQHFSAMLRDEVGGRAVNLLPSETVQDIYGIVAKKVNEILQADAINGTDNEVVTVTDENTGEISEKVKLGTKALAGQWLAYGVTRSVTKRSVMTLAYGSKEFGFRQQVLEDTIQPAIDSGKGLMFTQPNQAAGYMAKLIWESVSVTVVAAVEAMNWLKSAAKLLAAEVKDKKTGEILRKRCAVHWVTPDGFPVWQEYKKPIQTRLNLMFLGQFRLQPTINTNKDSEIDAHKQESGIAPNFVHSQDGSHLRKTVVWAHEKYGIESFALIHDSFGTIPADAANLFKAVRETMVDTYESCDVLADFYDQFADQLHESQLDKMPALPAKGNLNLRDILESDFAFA

O=C(NC(=O)N(c1ccc(Cl)cc1)S(=O)(=O)c1ccccc1)Nc1ccccc1Cl [compound 15960]
CC50 [1]: 120 µM
IC50 [2]: 3.4 µM

Cn1nc(C(F)(F)F)cc1C(=O)Nc1ccc(S(=O)(=O)N2CCCC2)cc1 [compound 16677, 1-methyl-3-(trifluoromethyl)-N-[4-(pyrrolidinylsulfonyl)-phenyl]-1H-pyrazole-5-carboxamide]
number of live cells, of solvent-treated controls ([3]; compound concentration 500 μM): approximately 80%
effect of pH 3.0 wash on virus yields after absorption in presence of compound [4]: only slightly affected
inhibitory activity after dialysis prior to infection (reversibility) [5]: completely ablated by dialysis
antiviral activity after pre-incubation in cell culture medium [6]: no loss in antiviral activity
CAT expression in MV minireplicon assay [7]: strong dose-dependent inhibition of CAT expression
IC50 in minigenome assay relative to IC50 against MV isolates [7]: about 25 times
F protein produced in cell-free transcription/translation [8]: Equal amounts of F protein were detected
CC50 [1]: > 150 µM
inhibition of MV-Ibd (genotype B3, resistant to MV entry inhibitors) [9]: efficiently inhibited
change of IC50 with 10 mg/ml BSA or five-fold higher virus inoculum [10]: no significant differences were observed
IC50 [2]: ~0.24 µM
IC50 [11]: > 75 µM
reduction in virus yields [12]: approximately 99.9%
IC50 [13]: 28 µM
effect on Nipah virus minireplicon [14]: no effect

Cc1ccc2[nH]c(=O)c(CNS(=O)(=O)c3ccccc3)c(-c3ccccc3)c2c1 [compound 68290]
concentration giving 50% reduction of the number of live cells ([3]; trypan-blue exclusion): approximately 75 μM
CC50 [1]: > 150 µM
IC50 [2]: 7.7 µM

Cc1ccc2nsnc2c1S(=O)(=O)Nc1ccc(Cl)cc1 [compound 99920]
CC50 [1]: 100 µM
IC50 [2]: 1.3 µM

Source: patent US8729059B2, “Paramyxovirus family inhibitors and methods of use thereof” (priority 2007, dated 2014)
